For 37 compounds, IC50 and solubility results are on record in US20220411388A1, “SUBSTITUTED IMIDAZOLE CARBOXAMIDES AND THEIR USE IN THE TREATMENT OF MEDICAL DISORDERS” (Bial - R&D Investments, S.A., priority 2019, published 2022).

≈ marks a conversion by molar mass, not a printed value. Bounds are passed on as bounds.

The target of one data set is T1, acid ceramidase (hACR) (Homo sapiens, UniProt Q13510).
T1 construct: expressed in transfected cells
T1 sequence (Q13510 22-395): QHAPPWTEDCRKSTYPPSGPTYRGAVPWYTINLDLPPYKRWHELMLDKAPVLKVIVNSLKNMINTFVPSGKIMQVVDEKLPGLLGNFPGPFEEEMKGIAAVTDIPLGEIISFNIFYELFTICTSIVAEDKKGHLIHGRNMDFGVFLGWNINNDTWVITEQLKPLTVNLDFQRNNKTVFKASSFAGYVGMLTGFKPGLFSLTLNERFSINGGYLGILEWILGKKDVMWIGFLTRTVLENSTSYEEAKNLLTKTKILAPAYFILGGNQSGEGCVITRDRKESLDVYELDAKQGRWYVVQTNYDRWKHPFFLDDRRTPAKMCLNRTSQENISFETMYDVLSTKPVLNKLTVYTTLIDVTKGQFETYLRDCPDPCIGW
Put plainly: Acid ceramidase inhibition, biochemical fluorescent assay with cell lysates overexpressing acid ceramidase (substrate Rbm14-12). The conditions noted are these: cell lysate, 1 hr preincubation at RT, pH 4.5, Rbm14-12 6.3 μM; read-out: IC50 hACR. Put shortly: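 Enzyme source was lysate from cells overexpressing acid ceramidase, 10 µg protein per reaction. Compounds were preincubated 1 h at RT in 25 mM NaAc, 100 mM NaCl, pH 4.5.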

The nature of data set [1]: Compound solubility in water. The data set is classed as physicochemical.

With `O=C(NCCC1CC1)n1cc(-c2cccnc2)nc1OC1CC1` [Example 66, 2-Cyclopropoxy-N-(2-cyclopropylethyl)-4-(pyridin-3-yl)-1H-imidazole-1-carboxamide], on acid ceramidase (hACR), the IC50 is over 1000 nM. In addition, the solubility in data set [1] was determined as 25 µg/mL (≈ 80 µM).

With `COc1nc(C(C)C)cn1C(=O)NCCC(C)C` [Example 76], the IC50 on acid ceramidase (hACR) lay within 200 to 1000 nM. Besides, the concentration in solution in data set [1] (solubility) was 20 µg/mL (≈ 78.9 µM).

For the compound `COc1nc(C2CCOCC2)cn1C(=O)NCCC(C)C` [Example 110, N-iso-Pentyl-2-methoxy-4-(tetrahydro-2H-pyran-4-yl)-1H-imidazole-1-carboxamide], on acid ceramidase (hACR), the half-maximal inhibitory concentration (IC50) is 200 to 1000 nM. In data set [1], the concentration in solution (solubility) was 29 µg/mL (≈ 98.2 µM).

Take `COc1nc(-c2cccnc2)cn1C(=O)NCCC1CC1` [Example 53, N-(2-Cyclopropylethyl)-2-methoxy-4-(pyridin-3-yl)-1H-imidazole-1-carboxamide]: the half-maximal inhibitory concentration (IC50) at acid ceramidase (hACR) is over 1000 nM. The compound further registered a solubility in data set [1] of 26.5 µg/mL (≈ 92.5 µM).

`CCOc1nc(C(C)(C)C)cn1C(=O)NCCC1CC1` [Example 92, 4-(tert-Butyl)-N-(2-cyclopropylethyl)-2-ethoxy-1H-imidazole-1-carboxamide]: on acid ceramidase (hACR), the half-inhibitory concentration (IC50) lay within 200 to 1000 nM. This compound also showed a solubility in data set [1] of 12 µg/mL (≈ 43 µM).

On to `CCOc1nccn1C(=O)NCCC(C)C` [Example 121, 2-Ethoxy-N-iso-pentyl-1H-imidazole-1-carboxamide], for which, on acid ceramidase (hACR), the IC50 lay within 200 to 1000 nM. Also, the concentration in solution in data set [1] (solubility) was 23 µg/mL (≈ 102 µM).

As to `Cc1ccc(-c2cn(C(=O)NCCC(C)C)cn2)cn1` [Example 37, N-iso-Pentyl-4-(6-methylpyridin-3-yl)-1H-imidazole-1-carboxamide], at acid ceramidase (hACR), the IC50 is over 1000 nM. The solubility in data set [1] worked out at 7.3 µg/mL (≈ 26.8 µM).

Turning to `CCOc1nc(-c2cccnc2)cn1C(=O)NCCC(C)C` [Example 67, 2-Ethoxy-N-iso-pentyl-4-(pyridin-3-yl)-1H-imidazole-1-carboxamide], the IC50 at acid ceramidase (hACR) is over 1000 nM. Further, in data set [1], the concentration in solution (solubility) came to 8 µg/mL (≈ 26.5 µM).

With `Cc1cn(C(=O)NCC#Cc2ccccc2)c(OCCN2CCOCC2)n1` [Example 196, 4-Methyl-2-(2-morpholinoethoxy)-N-(3-phenylprop-2-yn-1-yl)-1H-imidazole-1-carboxamide], the IC50 at acid ceramidase (hACR) is under 200 nM. For the same compound, in data set [1], the concentration in solution (solubility) was 31 µg/mL (≈ 84.1 µM).

With `COc1nccn1C(=O)NCCCc1ccccc1` [Example 124, 2-methoxy-N-(3-phenylpropyl)-1H-imidazole-1-carboxamide], the IC50 on acid ceramidase (hACR) was under 200 nM. This compound displayed a solubility in data set [1] of 20 µg/mL (≈ 77.1 µM).

As for `COc1nc(C(C)(C)C)cn1C(=O)NC1CC1` [Example 113, 4-(tert-Butyl)-N-cyclopropyl-2-methoxy-1H-imidazole-1-carboxamide], the half-inhibitory concentration (IC50) at acid ceramidase (hACR) lay within 200 to 1000 nM. The solubility in data set [1] was found to be 24 µg/mL (≈ 101 µM).

Turning to `O=C(NC1CCCCC1)n1cnc(-c2cccnc2)c1` [Example 61, N-Cyclohexyl-4-(pyridin-3-yl)-1H-imidazole-1-carboxamide], the IC50 on acid ceramidase (hACR) was over 1000 nM. In addition, the solubility in data set [1] turned out to be 23 µg/mL (≈ 85.1 µM).

Take `COc1nc(C(C)(C)C)cn1C(=O)NCCCC(C)C` [Example 102, 4-(tert-Butyl)-2-methoxy-N-(4-methylpentyl)-1H-imidazole-1-carboxamide]: on acid ceramidase (hACR), the IC50 is under 200 nM. Moreover, in data set [1], the solubility was 10 µg/mL (≈ 35.5 µM).

Turning to `O=C(NCCc1ccccc1)n1cnc(-c2ccc(F)nc2)c1` [Example 30, 4-(6-Fluoropyridin-3-yl)-N-phenethyl-1N-imidazole-1-carboxamide], the half-maximal inhibitory concentration (IC50) at acid ceramidase (hACR) is under 200 nM. Moreover, in data set [1], the concentration in solution (solubility) came to 3.4 µg/mL (≈ 11 µM).

Turning to `COc1nccn1C(=O)NCCCC(C)C` [Example 123, 2-Methoxy-N-(4-methylpentyl)-1H-imidazole-1-carboxamide], on acid ceramidase (hACR), the IC50 is under 200 nM. This compound also showed a solubility in data set [1] of 16 µg/mL (≈ 71 µM).

As for `COc1nc(C)cn1C(=O)NCC#CC(C)C` [Example 180, 2-Methoxy-4-methyl-N-(4-methylpent-2-yn-1-yl)-1H-imidazole-1-carboxamide], the IC50 at acid ceramidase (hACR) is under 200 nM. In data set [1], this compound came in with a solubility of 17 µg/mL (≈ 72.3 µM).

As for `CC(C)CCCNC(=O)n1cnc(-c2cccnc2)c1` [Example 33], the IC50 at acid ceramidase (hACR) lay in the range of 200 to 1000 nM. Also, the solubility in data set [1] was determined as 18.9 µg/mL (≈ 69.4 µM).

Consider `O=C(NCCc1ccccc1)n1cnc(-c2ccncc2)c1` [Example 6, N-Phenethyl-4-(pyridin-4-yl)-1H-imidazole-1-carboxamide], for which the IC50 at acid ceramidase (hACR) was over 1000 nM. In data set [1], this compound came in with a solubility of 23.9 µg/mL (≈ 81.8 µM).

For the compound `CC(C)CCNC(=O)n1cnc(C2CCN(C)CC2)c1` [Example 48, N-iso-Pentyl-4-(1-methylpiperidin-4-yl)-1H-imidazole-1-carboxamide], the IC50 on acid ceramidase (hACR) lay within 200 to 1000 nM. Besides, the solubility in data set [1] came to 34.2 µg/mL (≈ 123 µM).

Take `COc1nc(C2CCOC2)cn1C(=O)NCCCc1ccccc1` (centres unmarked) [Example 118, 2-Methoxy-N-(3-phenylpropyl)-4-(tetrahydrofuran-3-yl)-1H-imidazole-1-carboxamide]: the 50% inhibitory concentration (IC50) at acid ceramidase (hACR) is under 200 nM. In addition, the concentration in solution in data set [1] (solubility) came to 17 µg/mL (≈ 51.6 µM).

For the compound `COc1nc(C2CCOC2)cn1C(=O)NC1CC1` (centres unmarked) [Example 128, N-Cyclopropyl-2-methoxy-4-(tetrahydrofuran-3-yl)-1H-imidazole-1-carboxamide], the IC50 at acid ceramidase (hACR) is over 1000 nM. The compound also displayed a solubility in data set [1] of 15 µg/mL (≈ 59.7 µM).

For the compound `Cc1nc(-c2cn(C(=O)NCCC3CC3)cn2)co1` [Example 73, N-(2-Cyclopropylethyl)-4-(2-methyloxazol-4-yl)-1H-imidazole-1-carboxamide], on acid ceramidase (hACR), the IC50 was 200 to 1000 nM. Moreover, the solubility in data set [1] turned out to be 26 µg/mL (≈ 99.9 µM).

For `CN(C)Cc1cncc(-c2cn(C(=O)NCCc3ccccc3)cn2)c1` [Example 44, 4-(5-((Dimethylamino)methyl)pyridin-3-yl)-N-phenethyl-1H-imidazole-1-carboxamide], on acid ceramidase (hACR), the concentration for half-maximal inhibition (IC50) is 200 to 1000 nM. The same compound registered a solubility in data set [1] of 30.8 µg/mL (≈ 88.1 µM).

Regarding `CN1CCN(C2CCN(c3ncccc3-c3cn(C(=O)NCCC4CC4)cn3)CC2)CC1` [Example 55, N-(2-Cyclopropylethyl)-4-(2-(4-(4-methylpiperazin-1-yl)piperidin-1-yl)pyridin-3-yl)-1H-imidazole-1-carboxamide], the 50% inhibitory concentration (IC50) on acid ceramidase (hACR) was 200 to 1000 nM. The compound also showed a solubility in data set [1] of 41.5 µg/mL (≈ 94.8 µM).

Take `Cc1cn(C(=O)NCC#Cc2ccccc2)c(OCCN2CCN(C)CC2)n1` [Example 197, 4-Methyl-2-(2-(4-methylpiperazin-1-yl)ethoxy)-N-(3-phenylprop-2-yn-1-yl)-1H-imidazole-1-carboxamide]: at acid ceramidase (hACR), the IC50 was under 200 nM. The same compound came in with a solubility in data set [1] of 38 µg/mL (≈ 99.6 µM).

Take `CC(C)CCNC(=O)n1cnc(CC2CCN(C)CC2)c1` [Example 56, N-iso-Pentyl-4-((1-methylpiperidin-4-yl)methyl)-1H-imidazole-1-carboxamide]: the half-maximal inhibitory concentration (IC50) on acid ceramidase (hACR) lay in the range of 200 to 1000 nM. Further, the concentration in solution in data set [1] (solubility) was 21.7 µg/mL (≈ 74.2 µM).

`COc1nc(C)cn1C(=O)NCCCCc1ccccc1` [Example 156, 2-Methoxy-4-methyl-N-(4-phenylbutyl)-1H-imidazole-1-carboxamide]: the IC50 on acid ceramidase (hACR) was under 200 nM. This compound yielded a solubility in data set [1] of 23 µg/mL (≈ 80 µM).

In the case of `COc1nc(C)cn1C(=O)NC1CCC(F)(F)CC1` [Example 152, N-(4,4-difluorocyclohexyl)-2-methoxy-4-methyl-1H-imidazole-1-carboxamide], the IC50 on acid ceramidase (hACR) was over 1000 nM. The compound further displayed a solubility in data set [1] of 30 µg/mL (≈ 110 µM).

Regarding `COc1nccn1C(=O)NCCCCc1ccccc1` [Example 136, 2-Methoxy-N-(4-phenylbutyl)-1H-imidazole-1-carboxamide], the half-inhibitory concentration (IC50) at acid ceramidase (hACR) is under 200 nM. In data set [1], the solubility stood at 22 µg/mL (≈ 80.5 µM).

Take `Cc1cn(C(=O)NC2CCC(F)(F)CC2)c(Oc2cccc(C3CN(C)C3)c2)n1` [Example 162, N-(4,4-Difluorocyclohexyl)-4-methyl-2-(3-(1-methylazetidin-3-yl)phenoxy)-1H-imidazole-1-carboxamide]: at acid ceramidase (hACR), the 50% inhibitory concentration (IC50) fell in the range of 200 to 1000 nM. This compound returned a solubility in data set [1] of 17 µg/mL (≈ 42 µM).

Take `CCOc1nc(-c2ccc(OC)nc2)cn1C(=O)NCCC1CC1` [Example 68, N-(2-Cyclopropylethyl)-2-ethoxy-4-(6-methoxypyridin-3-yl)-1H-imidazole-1-carboxamide]: the concentration for half-maximal inhibition (IC50) at acid ceramidase (hACR) was over 1000 nM. For the same compound, the solubility in data set [1] turned out to be 2 µg/mL (≈ 6.05 µM).

On to `CC(C)OCCNC(=O)n1cnc(-c2cccnc2)c1` [Example 24, N-(2-iso-Propoxyethyl)-4-(pyridin-3-yl)-1H-imidazole-1-carboxamide], for which the IC50 at acid ceramidase (hACR) was over 1000 nM. For the same compound, the concentration in solution in data set [1] (solubility) was 12.6 µg/mL (≈ 45.9 µM).

As to `Cc1cn(C(=O)NCc2ccc(-c3ccccc3)cc2)c(OCCN2CCN(C)CC2)n1` [Example 203, N-(Biphenyl-4-ylmethyl)-4-methyl-2-(2-(4-methylpiperazin-1-yl)ethoxy)-1H-imidazole-1-carboxamide], the 50% inhibitory concentration (IC50) on acid ceramidase (hACR) was under 200 nM. Moreover, the concentration in solution in data set [1] (solubility) was 30 µg/mL (≈ 69.2 µM).

`COc1nc(-c2cccnc2N2CCN(C)CC2)cn1C(=O)NCCCC1(C(F)(F)F)CC1` [Example 195]: on acid ceramidase (hACR), the half-maximal inhibitory concentration (IC50) was over 1000 nM. The compound also showed a solubility in data set [1] of 35 µg/mL (≈ 75 µM).

With `Cc1cn(C(=O)NCCC(C)C)c(Oc2ccccc2)n1` [Example 146, N-iso-Pentyl-4-methyl-2-phenoxy-1H-imidazole-1-carboxamide], the IC50 at acid ceramidase (hACR) is under 200 nM. Moreover, in data set [1], the solubility was determined as 19 µg/mL (≈ 66.1 µM).

On to `COc1nc(C)cn1C(=O)NCCC1CCCC1(F)F` (centres unmarked) [Example 167, N-(2-(2,2-Difluorocyclopentyl)ethyl)-2-methoxy-4-methyl-1H-imidazole-1-carboxamide], for which the 50% inhibitory concentration (IC50) at acid ceramidase (hACR) is under 200 nM. Besides, the concentration in solution in data set [1] (solubility) came to 32 µg/mL (≈ 111 µM).

`CC(C)CCNC(=O)n1cnc(-c2ccccc2C2CCN(C)CC2)c1` [Example 38, N-iso-Pentyl-4-(2-(1-methylpiperidin-4-yl)phenyl)-1H-imidazole-1-carboxamide]: at acid ceramidase (hACR), the IC50 is 200 to 1000 nM. This compound also gave a solubility in data set [1] of 35.3 µg/mL (≈ 99.6 µM).

What is called IC50 is the concentration needed to halve the response being measured. The term solubility denotes the concentration that dissolves in the medium under given conditions. Higher therefore signals a readily soluble substance.
